The compounds below were run against T1, ALK (baculovirus expressed human ALK kinase domain F1098-K1410) (Homo sapiens, UniProt Q9UM73) (assay: biochemical). Details: 1 μM ATP, 4 μM poly-AEKY, 12 nM ALK, 2 hours at ambient temperature; read-out: ALK IC50.
T1 construct: human ALK kinase domain F1098-K1410; made in house
Summary of the method: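 Baculovirus-expressed human ALK kinase domain (F1098-K1410) was run in a luciferase-coupled chemiluminescent format, with ATP near its KM. After 2 h at ambient temperature, remaining ATP was read by luciferase-luciferin luminescence. IC50 came from 10-point dose-response curves fitted to a four-parameter equation with Hill slope.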

T1 sequence (Q9UM73 1098-1410): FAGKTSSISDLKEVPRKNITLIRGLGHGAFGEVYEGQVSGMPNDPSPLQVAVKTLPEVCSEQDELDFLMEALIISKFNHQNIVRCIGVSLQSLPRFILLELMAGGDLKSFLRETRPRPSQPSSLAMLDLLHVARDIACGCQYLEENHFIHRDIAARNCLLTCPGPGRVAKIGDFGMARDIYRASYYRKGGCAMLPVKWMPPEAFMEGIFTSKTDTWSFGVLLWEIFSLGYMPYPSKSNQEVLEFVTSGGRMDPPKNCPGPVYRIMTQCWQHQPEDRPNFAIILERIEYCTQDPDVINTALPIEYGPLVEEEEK

Compound	IC50 [nM]
CC(C)(C)OC(=O)NCCCCCNC(=O)c1csc(CNC(=O)COc2ccc(OC(F)(F)F)cc2)n1 [Entry 123, 1,1-dimethylethyl [5-({[2-({[({4-[(trifluoromethyl)oxy]phenyl}oxy)acetyl]amino}methyl)-1,3-thiazol-4-yl]carbonyl}amino)pentyl]carbamate]	50 to 500
CCN(CCNC(=O)c1csc(CNC(=O)COc2ccc(OC(F)(F)F)cc2)n1)c1cccc(C)c1 [Entry 124, N-{2-[ethyl(3-methylphenyl)amino]ethyl}-2-({[({4-[(trifluoromethyl)oxy]phenyl}oxy)acetyl]amino}methyl)-1,3-thiazole-4-carboxamide]	50 to 500
COc1cccc(CNC(=O)c2csc(CNC(=O)COc3ccc(C(C)C)cc3)n2)c1OC [Entry 125, N-{[2,3-bis(methyloxy)phenyl]methyl}-2-{[({[4-(1-methylethyl)phenyl]oxy}acetyl)amino]methyl}-1,3-thiazole-4-carboxamide]	50 to 500
O=C(COc1ccc(OC(F)(F)F)cc1)NCc1nc(C(=O)NCc2cc(F)cc(F)c2)cs1 [Entry 126, N-[(3,5-difluorophenyl)methyl]-2-({[({4-[(trifluoromethyl)oxy]phenyl}oxy)acetyl]amino}methyl)-1,3-thiazole-4-carboxamide]	50 to 500
O=C(COc1ccc(OC(F)(F)F)cc1)NCc1nc(C(=O)NCc2cccc(F)c2)cs1 [Entry 127, N-[(3-fluorophenyl)methyl]-2-({[({4-[(trifluoromethyl)oxy]phenyl}oxy)acetyl]amino}methyl)-1,3-thiazole-4-carboxamide]	50 to 500
C[C@@H](CNC(=O)c1coc(CNC(=O)COc2ccc(OC(F)(F)F)cc2)n1)c1ccccc1 [Entry 128, N-[(2R)-2-phenylpropyl]-2-({[({4-[(trifluoromethyl)oxy]phenyl}oxy)acetyl]amino}methyl)-1,3-oxazole-4-carboxamide]	50 to 500
O=C(NCCc1ccccc1F)c1csc(CNC(=O)c2cccnc2Oc2ccc(Cl)cc2)n1 [Entry 129, 2-[(4-chlorophenyl)oxy]-N-{[4-({[2-(2-fluorophenyl)ethyl]amino}carbonyl)-1,3-thiazol-2-yl]methyl}pyridine-3-carboxamide]	50 to 500
CN(C)Cc1ccc(CSCCNC(=O)c2csc(CNC(=O)COc3ccc(OC(F)(F)F)cc3)n2)o1 [Entry 130, N-{2-[({5-[(dimethylamino)methyl]furan-2-yl}methyl)thio]ethyl}-2-({[({4-[(trifluoromethyl)oxy]phenyl}oxy)acetyl]amino}methyl)-1,3-thiazole-4-carboxamide]	50 to 500
O=C(COc1ccc(OC(F)(F)F)cc1)NC(Cc1ccccc1)c1nc(C(=O)NCCc2cccc(Cl)c2)cs1 (centres unmarked) [Entry 131, N-[2-(3-chlorophenyl)ethyl]-2-(2-phenyl-1-{[({4-[(trifluoromethyl)oxy]phenyl}oxy)acetyl]amino}ethyl)-1,3-thiazole-4-carboxamide]	50 to 500
CCC(CC)CNC(=O)c1csc(CNC(=O)COc2ccc(OC(F)(F)F)cc2)n1 [Entry 132, N-(2-ethylbutyl)-2-({[({4-[(trifluoromethyl)oxy]phenyl}oxy)acetyl]amino}methyl)-1,3-thiazole-4-carboxamide]	50 to 500
Cc1ccsc1CNC(=O)c1csc(CNC(=O)COc2ccc(OC(F)(F)F)cc2)n1 [Entry 133, N-[(3-methyl-2-thienyl)methyl]-2-({[({4-[(trifluoromethyl)oxy]phenyl}oxy)acetyl]amino}methyl)-1,3-thiazole-4-carboxamide]	50 to 500
CCc1ccc(NC(=O)NCc2nc(C(=O)NCc3cccc(OC)c3OC)cs2)cc1 [Entry 134, N-{[2,3-bis(methyloxy)phenyl]methyl}-2-[({[(4-ethylphenyl)amino]carbonyl}amino)methyl]-1,3-thiazole-4-carboxamide]	50 to 500
Cc1onc(-c2ccccc2)c1CNC(=O)c1csc(CNC(=O)COc2ccc(OC(F)(F)F)cc2)n1 [Entry 135, N-[(5-methyl-3-phenylisoxazol-4-yl)methyl]-2-({[({4-[(trifluoromethyl)oxy]phenyl}oxy)acetyl]amino}methyl)-1,3-thiazole-4-carboxamide]	50 to 500
O=C(CNC(=O)c1ccc([N+](=O)[O-])cc1)NCc1nc(C(=O)NCCc2cccc(Cl)c2)cs1 [Entry 136, N-[2-(3-chlorophenyl)ethyl]-2-[({N-[(4-nitrophenyl)carbonyl]glycyl}amino)methyl]-1,3-thiazole-4-carboxamide]	50 to 500
COc1ccc(OC)c(CCNC(=O)c2csc(CNC(=O)COc3ccc(OC(F)(F)F)cc3)n2)c1 [Entry 137, N-{2-[2,5-bis(methyloxy)phenyl]ethyl}-2-({[({4-[(trifluoromethyl)oxy]phenyl}oxy)acetyl]amino}methyl)-1,3-thiazole-4-carboxamide]	50 to 500

Second part, the compound after the results:

IC50 [nM]	Compound
50 to 500	CC(C)CCNC(=O)c1csc(CNC(=O)COc2ccc(OC(F)(F)F)cc2)n1 [Entry 138, N-(3-methylbutyl)-2-({[({4-[(trifluoromethyl)oxy]phenyl}oxy)acetyl]amino}methyl)-1,3-thiazole-4-carboxamide]
50 to 500	O=C(COc1ccc(OC(F)(F)F)cc1)NCc1nc(C(=O)N2CCc3ccccc3C2)cs1 [Entry 139, N-{[4-(3,4-dihydroisoquinolin-2(1H)-ylcarbonyl)-1,3-thiazol-2-yl]methyl}-2-({4-[(trifluoromethyl)oxy]phenyl}oxy)acetamide]
50 to 500	CC1CCC(NC(=O)c2csc(CNC(=O)COc3ccc(OC(F)(F)F)cc3)n2)CC1 (centres unmarked) [Entry 140, N-(4-methylcyclohexyl)-2-({[({4-[(trifluoromethyl)oxy]phenyl}oxy)acetyl]amino}methyl)-1,3-thiazole-4-carboxamide]
50 to 500	O=C(NCCc1cccc(Cl)c1)c1csc(CNC(=O)c2cccnc2Oc2ccc(F)cc2)n1 [Entry 141, N-{[4-({[2-(3-chlorophenyl)ethyl]amino}carbonyl)-1,3-thiazol-2-yl]methyl}-2-[(4-fluorophenyl)oxy]pyridine-3-carboxamide]
50 to 500	O=C(COc1ccc(OC(F)(F)F)cc1)NCc1nc(C(=O)Nc2ccc(C(=O)O)c(O)c2)cs1 [Entry 142, 2-hydroxy-4-({[2-({[({4-[(trifluoromethyl)oxy]phenyl}oxy)acetyl]amino}methyl)-1,3-thiazol-4-yl]carbonyl}amino)benzoic acid]
50 to 500	O=C(COc1ccc(OC(F)(F)F)cc1)NCc1nc(C(=O)NCCc2ccccc2F)co1 [Entry 143, N-[2-(2-fluorophenyl)ethyl]-2-({[({4-[(trifluoromethyl)oxy]phenyl}oxy)acetyl]amino}methyl)-1,3-oxazole-4-carboxamide]
50 to 500	COc1cccc(CNC(=O)c2csc(CNC(=O)c3cccnc3Oc3ccc(Cl)cc3)n2)c1OC [Entry 144, N-({4-[({[2,3-bis(methyloxy)phenyl]methyl}amino)carbonyl]-1,3-thiazol-2-yl}methyl)-2-[(4-chlorophenyl)oxy]pyridine-3-carboxamide]
50 to 500	O=C(COc1ccc(OC(F)(F)F)cc1)NCc1nc(C(=O)NCCc2ccccc2)cs1 [Entry 145, N-(2-phenylethyl)-2-({[({4-[(trifluoromethyl)oxy]phenyl}oxy)acetyl]amino}methyl)-1,3-thiazole-4-carboxamide]
50 to 500	CCSCCNC(=O)c1csc(CNC(=O)COc2ccc(OC(F)(F)F)cc2)n1 [Entry 146, N-[2-(ethylthio)ethyl]-2-({[({4-[(trifluoromethyl)oxy]phenyl}oxy)acetyl]amino}methyl)-1,3-thiazole-4-carboxamide]
50 to 500	C#CC(CC)(CC)NC(=O)c1csc(CNC(=O)COc2ccc(OC(F)(F)F)cc2)n1 [Entry 147, N-(1,1-diethylprop-2-yn-1-yl)-2-({[({4-[(trifluoromethyl)oxy]phenyl}oxy)acetyl]amino}methyl)-1,3-thiazole-4-carboxamide]
50 to 500	O=C(COc1ccc(OC(F)(F)F)cc1)NCc1nc(C(=O)NCCc2cccc(F)c2)co1 [Entry 148, N-[2-(3-fluorophenyl)ethyl]-2-({[({4-[(trifluoromethyl)oxy]phenyl}oxy)acetyl]amino}methyl)-1,3-oxazole-4-carboxamide]
50 to 500	CSCCCNC(=O)c1csc(CNC(=O)COc2ccc(OC(F)(F)F)cc2)n1 [Entry 149, N-[3-(methylthio)propyl]-2-({[({4-[(trifluoromethyl)oxy]phenyl}oxy)acetyl]amino}methyl)-1,3-thiazole-4-carboxamide]
50 to 500	Cc1cc(Cl)ccc1CNC(=O)c1csc(CNC(=O)COc2ccc(OC(F)(F)F)cc2)n1 [Entry 150, N-[(4-chloro-2-methylphenyl)methyl]-2-({[({4-[(trifluoromethyl)oxy]phenyl}oxy)acetyl]amino}methyl)-1,3-thiazole-4-carboxamide]
50 to 500	Cc1cccc(CCNC(=O)c2coc(CNC(=O)COc3ccc(OC(F)(F)F)cc3)n2)c1 [Entry 151, N-[2-(3-methylphenyl)ethyl]-2-({[({4-[(trifluoromethyl)oxy]phenyl}oxy)acetyl]amino}methyl)-1,3-oxazole-4-carboxamide]
50 to 500	CC(CCc1ccccc1)NC(=O)c1csc(CNC(=O)COc2ccc(OC(F)(F)F)cc2)n1 (centres unmarked) [Entry 152, N-(1-methyl-3-phenylpropyl)-2-({[({4-[(trifluoromethyl)oxy]phenyl}oxy)acetyl]amino}methyl)-1,3-thiazole-4-carboxamide]
50 to 500	CC(C)[C@H](C)NC(=O)c1csc(CNC(=O)COc2ccc(OC(F)(F)F)cc2)n1 [Entry 153, N-[(1S)-1,2-dimethylpropyl]-2-({[({4-[(trifluoromethyl)oxy]phenyl}oxy)acetyl]amino}methyl)-1,3-thiazole-4-carboxamide]
50 to 500	COc1cccc(CNC(=O)c2csc(CNC(=O)COc3ccc(OC(F)(F)F)cc3)n2)c1 [Entry 154, N-{[3-(methyloxy)phenyl]methyl}-2-({[({4-[(trifluoromethyl)oxy]phenyl}oxy)acetyl]amino}methyl)-1,3-thiazole-4-carboxamide]
